Test results published in PMC9181982, “Biphenyl Ether Analogs Containing Pomalidomide as Small-Molecule Inhibitors of the Programmed Cell Death-1/Programmed Cell Death-Ligand 1 Interaction” (Molecules, 2022).

Key:
[1] = system: PD-1/PD-L1 blockade, Jurkat effector cells / CHO/TCRAct/PD-L1 cells; assay: Immune checkpoint blockade (ICB) assay (Promega): Jurkat ECs co-cultured with CHO/TCRAct/PD-L1 cells, NFAT luciferase readout; assay type: cell-based, human; details: for Promega Assay (active / not active): cell-based PD-1/PD-L1 blockade bioassay
Description: In order to explore the bioactivity of the synthesized compounds, a well-recognized immune checkpoint blockade (ICB) assay was performed. In the assay, artificial T cells, the Jurkat effector cells (Jurkat ECs), i.e., the Jurkat T cells overexpressing PD-1 and luciferase-coding gene under the control of the TCR-inducible NFAT response element, are contacted with artificial antigen-presenting CHO/TCRAct/PD-L1 cells, as illustrated in [31]. The latter is the CHO cells equipped with the TCR activator molecule, which delivers activation of Jurkat ECs, and also the PD-L1 protein, which provides a negative signal towards the activation of Jurkat ECs. Upon the blockade of the PD-1/PD-L1 interaction, activation of Jurkat ECs is increased, as we have shown before for several classes of therapeutic antibodies and small molecules.
The human PD-L1-expressing CHO-K1 cells overexpressing TCR activator (CHO/TCRAct/PD-L1) cells and Jurkat ECs T cells overexpressing PD-1 and carrying a luciferase reporter gene under the control of the Nuclear Factor of Activated T cells Response Element (NFAT-RE) were obtained from Promega and cultured in an RPMI-1640 medium (Biowest, Nuaillé, France) supplemented with 10% fetal bovine serum (FBS, Biowest, Nuaillé, France) and […] L-glutamine (Biowest, Nuaillé, France). G418 (250 µg/mL, InvivoGen, San Diego, CA, USA) and Hygromycin B Gold (50 µg/mL, InvivoGen, San Diego, CA, USA) were also added to the culture medium as selection antibiotics. CAKI 2, LNCap, PC-3, and MDA-MB-231 cells were purchased from the European Collection of Authenticated Cell Cultures (ECACC) and cultured according to the provided protocol.
For the analysis of biological activity of the analyzed compounds, an immune checkpoint blockade (ICB) assay was performed. For this, the culture of Jurkat effector cells (Jurkat-ECs) and […] was carried out. The assay was performed according to the protocol described in our previous works. All the experiments were performed three times as independent experiments.
Figure 2 Bioactivity of the indicated compounds. (A,B) The activity was monitored with a cell-based immune checkpoint blockade (ICB) assay. Jurkat ECs were contacted with pre-seeded CHO/TCRAct/PD-L1 cells in the presence of the indicated concentrations of the compounds (A) or durvalumab (B) as a positive control. The cells were co-cultured for 6 h and the luminescence signal was measured following the addition of the Bio-Glo substrate. The graphs show fold induction calculated versus either DMSO-treated (for small molecules) or untreated (for durvalumab) control (ctrl) cells. The results are mean ± SD from three independent experiments. […] (C) Analysis of the expression of PD-L1 in four human cancer cell lines compared to PD-L1-overexpressing CHO/TCRAct/PD-L1 cells. (D) Analysis of the expression of PD-L1 in MDA-MB-231 cells treated with either 4 or 5 compounds for 6 or 24 h.

[2] = molecular target: T1, PD-1/PD-L1 complex (Homo sapiens, UniProt Q9NZQ7); assay: HTRF (homogeneous time-resolved fluorescence) PD-1/PD-L1 binding assay (Cis-Bio); details: for inhibition at 0.5 µM / HTRF: Percentage of the Dissociated PD-1/PD-L1 Complex, 0.5 µM Ligand Conc.: 0.5 µM ligand; for inhibition at 0.5 µM / inhibition at 5 µM / HTRF: Percentage of the Dissociated PD-1/PD-L1 Complex, 0.5 µM Ligand Conc. / HTRF: Percentage of the Dissociated PD-1/PD-L1 Complex, 5 µM Ligand Conc.: 5 nM hPD-L1, 50 nM hPD-1; for inhibition at 0.5 µM: read-out: HTRF: Percentage of the Dissociated PD-1/PD-L1 Complex, 0.5 µM Ligand Conc.; for inhibition at 5 µM / HTRF: Percentage of the Dissociated PD-1/PD-L1 Complex, 5 µM Ligand Conc.: 5 µM ligand; for inhibition at 5 µM: read-out: HTRF: Percentage of the Dissociated PD-1/PD-L1 Complex, 5 µM Ligand Conc.
T1 construct: purchased Cis-Bio
Description: To validate the activity toward PD-L1 of our compounds, we carried out an HTRF (homogeneous time-resolved fluorescence) experiment at two concentrations of the ligand (5 µM and 0.5 µM) (Table 1).
HTRF was carried out using a certified Cis-Bio assay according to the manufacturer’s guidelines. The experiments were carried out at 5 nM of h-L1 and 50 nM of hPD-1 in the final formulation at the 20 µL final volume in the well. To determine the half maximal inhibitory concentrations (IC50) of the tested compounds, the measurements were carried out on two individual dilution series unless stated otherwise. After mixing all the components according to the Cis-Bio protocol, the plate was left for 2 h incubation at room temperature followed by the TR-FRET measurement on a Tecan Spark 20M. […] The collected data was background-subtracted from the negative control, normalized on the positive control, averaged, and fitted with the normalized Hill’s equation to determine the IC50 value using Mathematica 12 (Princeton, NJ, USA).

[3] = molecular target: T2, PD-L1 protein (Homo sapiens, UniProt Q9NZQ7); assay: 1H NMR binding analysis, PD-L1 protein titrated with ligand; details: 1H NMR titration; compound 6 at protein–ligand ratio 1:10
T2 construct: PD-L1 gene (amino acids 18–239); made in house; host or cells: E. coli BL21
Description: Apart from the HTRF assay, we performed the NMR [33, 34] binding analysis by recording the ^1H spectrum of the PD-L1 protein titrated with compound 4 (Figure 1).
The E. coli strain BL21 was transformed with a pET-21b plasmid carrying the PD-L1 gene (amino acids 18–239). The bacteria were cultured in LB at 37 °C until OD600nm of 0, 6 when the recombinant protein production was induced with 1 mM IPTG. The protein production continued overnight. The inclusion bodies were collected by centrifugation, washed twice with 50 mM Tris HCl, pH 8.0, containing 200 mM NaCl, 10 mM EDTA, 10 mM 2-mercaptoethanol, and 0.5% Triton X-100, followed by a single wash with the same buffer but with no Triton X-100. The washed inclusion bodies were resuspended overnight in 50 mM Tris HCl, pH 8.0, 6 M GuHCl, 200 mM NaCl, and 10 mM 2-mercaptoethanol and clarified with centrifugation. Refolding of PD-L1 was performed by dropwise dilution into 0.1 M Tris HCl, pH 8.0, containing 1 M L-arginine hydrochloride, 0.25 mM oxidized glutathione, and 0.25 mM reduced glutathione. The refolded protein was dialyzed three times against 10 mM Tris HCl, pH 8.0, containing 20 mM NaCl and purified by size exclusion chromatography using Superdex 75 and a dialysis buffer. The quality of the refolded protein was evaluated by SDS-PAGE and NMR.
NMR spectra were recorded in PBS, pH 7.4, containing 10% (v/v) of D2O added to the samples to provide the lock signal. Water suppression was carried out using the WATERGATE sequence. All the spectra were recorded at 300 K using a Bruker Avance 600 MHz spectrometer with the Cryo-Platform. The NMR spectrum was recorded at three different ligand/protein ratios from 0 to 10. The samples were prepared by adding small amounts of a 50 mM ligand stock solution in DMSO to the protein solution (0.20 mL) of the PD-L1 fragment at a concentration of 0.14 mM. The acquisition parameters for each spectrum were as follows: size of FID32768, number of scans: 32. The spectra were visualized using TopSpin 4.0.2. (Bruker, Billerica, MA, USA)

T1 sequence (Q9NZQ7 19-238 limits assumed, one chain of several): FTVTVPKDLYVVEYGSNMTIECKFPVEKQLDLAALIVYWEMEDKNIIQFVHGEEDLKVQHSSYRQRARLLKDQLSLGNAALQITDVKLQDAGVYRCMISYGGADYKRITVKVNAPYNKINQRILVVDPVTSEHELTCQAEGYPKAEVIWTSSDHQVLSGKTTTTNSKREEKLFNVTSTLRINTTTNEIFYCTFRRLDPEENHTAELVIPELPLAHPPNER
T2 sequence (Q9NZQ7 18-239): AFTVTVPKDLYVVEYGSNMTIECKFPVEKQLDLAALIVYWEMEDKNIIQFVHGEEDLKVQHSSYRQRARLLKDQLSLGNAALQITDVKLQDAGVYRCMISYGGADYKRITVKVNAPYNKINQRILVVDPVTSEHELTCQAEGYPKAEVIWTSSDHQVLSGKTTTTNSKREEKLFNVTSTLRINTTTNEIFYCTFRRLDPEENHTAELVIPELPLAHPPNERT

inhibition at 0.5 µM [2]	inhibition at 5 µM [2]	Protein precipitation during NMR titration [3]	IC50 ([2]; six ligand concentrations, two dilution series)	Compound	Promega Assay (active / not active) [1]	HTRF: Percentage of the Dissociated PD-1/PD-L1 Complex, 0.5 µM Ligand Conc. [2]	HTRF: Percentage of the Dissociated PD-1/PD-L1 Complex, 5 µM Ligand Conc. [2]	Activation of Jurkat ECs in the ICB assay ([1]; 6 h co-culture, fold induction vs control)
40.9%	76.3%			Cc1c(COc2ccc3nc(CNC(=O)CCCC(=O)Nc4cccc5c4C(=O)N(C4CCC(=O)NC4=O)C5=O)c(NCc4cccc(C#N)c4)n3c2)cccc1-c1ccc(F)cc1 (centres unmarked) [compound 12, N1-((3-((3-cyanobenzyl)amino)-6-((4′-fluoro-2-methyl-[1,1′-biphenyl]-3-yl)methoxy)imidazo [1,2-a]pyridin-2-yl)methyl)-N5-(2-(2,6-dioxopiperidin-3-yl)-1,3-dioxoisoindolin-4-yl)glutaramide]	Not active			
26.3%	40%			COc1cc(-c2cccc(-c3ccc4c(c3)OCCO4)c2Cl)ccc1COC(=O)CCCC(=O)N1CCN(c2cccc3c2C(=O)N(C2CCC(=O)NC2=O)C3=O)CC1 (centres unmarked) [compound 11]	Not active			
0%	35.2%			COc1nc(OCc2cccc(-c3ccccc3)c2C)ccc1C(NCCCNc1cccc2c1C(=O)N(C1CCC(=O)NC1=O)C2=O)c1nnnn1C(C)(C)C (centres unmarked) [compound 7, 4-((3-(((1-(tert-butyl)-1H-tetrazol-5-yl)(2-methoxy-6-((2-methyl-[1,1′-biphenyl]-3-yl)methoxy)pyridin-3-yl)methyl)amino)propyl)amino)-2-(2,6-dioxopiperidin-3-yl)isoindoline-1,3-dione]	Not active			
29.4%	60.6%			COc1cc(-c2cccc(-c3ccc4c(c3)OCCO4)c2Cl)ccc1COC(=O)CCC(=O)N1CCN(c2cccc3c2C(=O)N(C2CCC(=O)NC2=O)C3=O)CC1 (centres unmarked) [compound 10, (3′-(benzo-1,4-dioxan-6-yl)-2′-chloro-3-methoxy-[1,1′-biphenyl]-4-yl)methyl 4-(4-(2-(2,6-dioxopiperidin-3-yl)-1,3-dioxoisoindolin-4-yl)piperazin-1-yl)-4-oxobutanoate]	Not active			

The next lines start with the compound.

Compound	inhibition at 0.5 µM [2]	inhibition at 5 µM [2]	Protein precipitation during NMR titration [3]	IC50 ([2]; six ligand concentrations, two dilution series)	Promega Assay (active / not active) [1]	HTRF: Percentage of the Dissociated PD-1/PD-L1 Complex, 0.5 µM Ligand Conc. [2]	HTRF: Percentage of the Dissociated PD-1/PD-L1 Complex, 5 µM Ligand Conc. [2]	Activation of Jurkat ECs in the ICB assay ([1]; 6 h co-culture, fold induction vs control)
N1-(2-(2,6-dioxopiperidin-3-yl)-1,3-dioxoisoindolin-4-yl)-N5-((6-((2-methyl-[1,1′-biphenyl]-3-yl)methoxy)-3-((1-phenylethyl)amino)imidazo [1,2-a]pyridin-2-yl)methyl)glutaramide [compound 13]					Not active	30.4%	31.1%	
Cc1c(COc2cc(OCc3cccc(C#N)c3)c(CN3C[C@H](O)C[C@@H]3C(=O)NCCCNc3cccc4c3C(=O)N(C3CCC(=O)NC3=O)C4=O)cc2Cl)cccc1-c1ccc2c(c1)OCCO2 (stereo partly drawn) [compound 2, (2R,4R)-1-(5-chloro-2-((3-cyanobenzyl)oxy)-4-((3-(2,3-dihydrobenzo[b][1,4]dioxin-6-yl)-2-methylbenzyl)oxy)benzyl)-N-(3-((2-(2,6-dioxopiperidin-3-yl)-1,3-dioxoisoindolin-4yl)amino)propyl)-4-hydroxypyrrolidine-2-carboxamide]	3.9%	71.7%			Not active			
durvalumab								increase the activation of Jurkat ECs
Cc1c(COc2cc(OCc3cccc(C#N)c3)c(CN3C[C@H](O)C[C@@H]3C(=O)O)cc2Cl)cccc1-c1ccc2c(c1)OCCO2 [BMS-1166, reference compound]			not observed			100%	100%	
Cc1c(COc2cc(OCc3cccc(C#N)c3)c(CN3C[C@H](O)C[C@@H]3C(=O)NCC3CCN(CC(=O)Nc4cccc5c4C(=O)N(C4CCC(=O)NC4=O)C5=O)CC3)cc2Cl)cccc1-c1ccc2c(c1)OCCO2 (stereo partly drawn) [compound 1, (2R,4R)-1-(5-chloro-2-((3-cyanobenzyl)oxy)-4-((3-(2,3-dihydrobenzo[b][1,4]dioxin-6-yl)-2-methylbenzyl)oxy)benzyl)-N-((1-(2-((2-(2,6-dioxopiperidin-3-yl)-1,3-dioxoisoindolin-4-yl)amino)-2-oxoethyl)piperidin-4-yl)methyl)-4-hydroxypyrrolidine-2-carboxamide]	23.7%	68.3%			Not active			
Cc1c(COc2cc(OCc3cccc(C#N)c3)c(CNCC3CCN(CC(=O)Nc4cccc5c4C(=O)N(C4CCC(=O)NC4=O)C5=O)CC3)cc2Cl)cccc1-c1ccc2c(c1)OCCO2 (centres unmarked) [compound 3, 2-(4-(((5-chloro-2-((3-cyanobenzyl)oxy)-4-((3-(2,3-dihydrobenzo[b][1,4]dioxin-6-yl)-2-methylbenzyl)oxy)benzyl)amino)methyl)piperidin-1-yl)-N-(2-(2,6-dioxopiperidin-3-yl)-1,3-dioxoisoindolin-4-yl)acetamide]	77.8%	97.1%		60 ± 2 nM	Not active			
